pIC50: −log10 of the molar value. Like-named read-outs stand apart in the source and are kept apart here.
Key:
[1] = target: T1, AuroraA-TPX2 (Homo sapiens, UniProt O14965); experiment: AuroraA-TPX2 Homogeneous Time Resolved Fluorescent (HTRF) kinase assay; type: biochemical; settings: average, read-out: AurA/TP X2_ IC50_IP (Avg)
T1 construct: 20 µL of AuroraA-TPX2 KD GST; GST
T1 sequence (O14965 133-383 limits assumed): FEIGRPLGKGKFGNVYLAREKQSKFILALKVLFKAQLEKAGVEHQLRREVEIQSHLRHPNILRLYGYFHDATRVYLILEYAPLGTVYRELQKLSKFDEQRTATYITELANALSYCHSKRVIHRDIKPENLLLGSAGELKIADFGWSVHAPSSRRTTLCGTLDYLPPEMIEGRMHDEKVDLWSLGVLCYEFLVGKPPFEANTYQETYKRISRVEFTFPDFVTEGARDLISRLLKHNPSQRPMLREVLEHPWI
T1 sequence (Q9ULW0 1-43 partner limits assumed): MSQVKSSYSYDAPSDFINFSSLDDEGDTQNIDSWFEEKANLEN
Method in brief: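 Aurora-A/TPX2 phosphorylates biotinylated PLK peptide (about 1 µM) with ATP for about 120 min in 60 mM HEPES pH 7.5, 10 mM MgCl2, 2 mM DTT. EDTA quench, overnight equilibration with Eu-anti-phosphoPLK antibody and SA-APC; HTRF read at 615/655 nm after 320 nm excitation.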

[2] = target: T2, AuroraB (Homo sapiens, UniProt Q96GD4); experiment: AuroraB Homogeneous Time Resolved Fluorescent (HTRF) kinase assay; type: biochemical; settings: average, read-out: AurB_ _IC50_IP (Avg)
T2 construct: 20 µL of AuroraB FL His; His
Method in brief: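 Full-length His-tagged AuroraB (400 pM) phosphorylates 0.1 µM biotinylated Histone H3 with 23 µM ATP (Km(app)) in HEPES pH 7.5 with Mg/Mn, about 90 min. EDTA-quenched; Eu-anti-phosphoHistoneH3 and SA-APC HTRF, 655/615 nm ratio as phosphorylation.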

[3] = given as numbers, unit inferred

T2 sequence (Q96GD4 whole entry): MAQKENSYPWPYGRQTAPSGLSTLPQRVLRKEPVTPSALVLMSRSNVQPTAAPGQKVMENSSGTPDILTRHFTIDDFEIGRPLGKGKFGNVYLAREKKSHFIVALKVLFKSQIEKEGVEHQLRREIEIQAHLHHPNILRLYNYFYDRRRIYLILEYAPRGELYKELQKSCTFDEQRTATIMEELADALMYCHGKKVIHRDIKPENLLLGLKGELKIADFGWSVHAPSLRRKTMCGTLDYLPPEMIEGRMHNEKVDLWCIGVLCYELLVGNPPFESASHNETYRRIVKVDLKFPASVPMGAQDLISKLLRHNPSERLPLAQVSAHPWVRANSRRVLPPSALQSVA

Structure (SMILES) | pIC50 ([1]; given as class symbols) | pIC50 ([2]; given as class symbols) | pIC50 [1, 3] | pIC50 [2, 3]
COc1ccc(F)c(-c2nnc(Nc3ccc(Oc4ncccc4-c4ccnc(N)n4)cc3)c3ccccc23)c1 [compound 372, N-(4-((3-(2-amino-4-pyrimidinyl)-2-pyridinyl)oxy)phenyl)-4-(2-fluoro-5-(methyloxy)phenyl)-1-phthalazinamine] | ≥ 7.00 | ≥ 7.00 |  | 
Nc1nccc(-c2cccnc2Oc2ccc(Nc3nnc(-c4cc(O)ccc4F)c4ccccc34)cc2)n1 [compound 373, 3-(4-((4-((3-(2-amino-4-pyrimidinyl)-2-pyridinyl)oxy)phenyl)amino)-1-phthalazinyl)-4-fluorophenol] | ≥ 7.00 | ≥ 7.00 |  | 
CN(C)CCCOc1cccc(-c2nnc(Nc3ccc(Oc4ncccc4-c4ccnc(N)n4)cc3)c3ccccc23)c1 [compound 374, N-(4-((3-(2-amino-4-pyrimidinyl)-2-pyridinyl)oxy)phenyl)-4-(3-((3-(dimethylamino)propyl)oxy)phenyl)-1-phthalazinamine] | ≥ 7.00 | ≥ 7.00 |  | 
Nc1nccc(-c2cccnc2Oc2ccc(Nc3nnc(-c4cccc(CO)c4)c4ccccc34)cn2)n1 [compound 375, (3-(4-((6-((3-(2-amino-4-pyrimidinyl)-2-pyridinyl)oxy)-3-pyridinyl)amino)-1-phthalazinyl)phenyl)methanol] | ≥ 7.00 | ≥ 7.00 |  | 
COc1ccc(F)c(-c2nnc(Nc3ccc(Oc4ncccc4-c4ccnc(N)n4)nc3)c3ccccc23)c1 [compound 376, N-(6-((3-(2-amino-4-pyrimidinyl)-2-pyridinyl)oxy)-3-pyridinyl)-4-(2-fluoro-5-(methyloxy)phenyl)-1-phthalazinamine] | ≥ 7.00 | ≥ 7.00 |  | 
Nc1nccc(-c2cccnc2Oc2ccc(Nc3nnc(-c4cccc(OC(F)(F)F)c4)c4ccccc34)cc2)n1 [compound 377, N-(4-((3-(2-amino-4-pyrimidinyl)-2-pyridinyl)oxy)phenyl)-4-(3-((trifluoromethyl)oxy)phenyl)-1-phthalazinamine] | ≥ 7.00 | ≥ 7.00 |  | 
Nc1nccc(-c2cccnc2Oc2ccc(Nc3nnc(-c4cccc(OC(F)(F)F)c4)c4ccccc34)cn2)n1 [compound 378, N-(6-((3-(2-amino-4-pyrimidinyl)-2-pyridinyl)oxy)-3-pyridinyl)-4-(3-((trifluoromethyl)oxy)phenyl)-1-phthalazinamine] | ≥ 7.00 | ≥ 7.00 |  | 
Nc1nccc(-c2cccnc2Oc2ccc(Nc3nnc(-c4cc(O)ccc4F)c4ccccc34)cn2)n1 [compound 379, 3-(4-((6-((3-(2-amino-4-pyrimidinyl)-2-pyridinyl)oxy)-3-pyridinyl)amino)-1-phthalazinyl)-4-fluorophenol] | ≥ 7.00 | ≥ 7.00 |  | 
COc1ccc(F)cc1-c1nnc(Nc2ccc(Oc3ncccc3-c3ccnc(N)n3)cc2)c2ccccc12 [compound 380, N-(4-((3-(2-amino-4-pyrimidinyl)-2-pyridinyl)oxy)phenyl)-4-(5-fluoro-2-(methyloxy)phenyl)-1-phthalazinamine] | ≥ 7.00 | ≥ 7.00 |  | 
COc1ccc(F)cc1-c1nnc(Nc2ccc(Oc3ncccc3-c3ccnc(N)n3)nc2)c2ccccc12 [compound 381, N-(6-((3-(2-amino-4-pyrimidinyl)-2-pyridinyl)oxy)-3-pyridinyl)-4-(5-fluoro-2-(methyloxy)phenyl)-1-phthalazinamine] | 6.30 to 7.00 | ≥ 7.00 |  | 
Nc1nccc(-c2cccnc2Oc2ccc(Nc3nnc(-c4ccccc4OC(F)(F)F)c4ccccc34)cc2)n1 [compound 382, N-(4-((3-(2-amino-4-pyrimidinyl)-2-pyridinyl)oxy)phenyl)-4-(2-((trifluoromethyl)oxy)phenyl)-1-phthalazinamine] | 6.30 to 7.00 | ≥ 7.00 |  | 
Nc1nccc(-c2cccnc2Oc2ccc(Nc3nnc(-c4ccccc4OC(F)(F)F)c4ccccc34)cn2)n1 [compound 383, N-(6-((3-(2-amino-4-pyrimidinyl)-2-pyridinyl)oxy)-3-pyridinyl)-4-(2-((trifluoromethyl)oxy)phenyl)-1-phthalazinamine] | 5.60 to 6.30 | ≥ 7.00 |  | 
Nc1nccc(-c2cccnc2Oc2ccc(Nc3nnc(-c4ccccc4CO)c4ccccc34)cc2)n1 [compound 384, (2-(4-((4-((3-(2-amino-4-pyrimidinyl)-2-pyridinyl)oxy)phenyl)amino)-1-phthalazinyl)phenyl)methanol] | ≥ 7.00 | ≥ 7.00 |  | 
Nc1nccc(-c2cccnc2Oc2ccc(Nc3nnc(-c4ccccc4CO)c4ccccc34)cn2)n1 [compound 385, (2-(4-((6-((3-(2-amino-4-pyrimidinyl)-2-pyridinyl)oxy)-3-pyridinyl)amino)-1-phthalazinyl)phenyl)methanol] | 6.30 to 7.00 | ≥ 7.00 |  | 

Now from value to compound:

pIC50 ([1]; given as class symbols) | pIC50 ([2]; given as class symbols) | pIC50 [1, 3] | pIC50 [2, 3] | Structure (SMILES)
≥ 7.00 | ≥ 7.00 |  |  | Nc1nccc(-c2cccnc2Oc2ccc(Nc3nnc(-c4cc(F)ccc4O)c4ccccc34)cc2)n1 [compound 386, 2-(4-((4-((3-(2-amino-4-pyrimidinyl)-2-pyridinyl)oxy)phenyl)amino)-1-phthalazinyl)-4-fluorophenol]
≥ 7.00 | ≥ 7.00 |  |  | Nc1nccc(-c2cccnc2Oc2ccc(Nc3nnc(-c4cc(F)ccc4O)c4ccccc34)cn2)n1 [compound 387, 2-(4-((6-((3-(2-amino-4-pyrimidinyl)-2-pyridinyl)oxy)-3-pyridinyl)amino)-1-phthalazinyl)-4-fluorophenol]
6.30 to 7.00 | ≥ 7.00 |  |  | CN(C)CCCOc1cccc(-c2nnc(Nc3ccc(Oc4ncccc4-c4ccnc(N)n4)nc3)c3ccccc23)c1 [compound 388, N-(6-((3-(2-amino-4-pyrimidinyl)-2-pyridinyl)oxy)-3-pyridinyl)4-(3-((3-(dimethylamino)propyl)oxy)phenyl)-1-phthalazinamine]
≥ 7.00 | ≥ 7.00 |  |  | CN1CCN(CCCNc2nccc(-c3cccnc3Oc3ccc(Nc4nnc(-c5ccccc5)c5ccccc45)cn3)n2)CC1 [compound 389, N-(6-((3-(2-((3-(4-methyl-1-piperazinyl)propyl)amino)-4-pyrimidinyl)-2-pyridinyl)oxy)-3-pyridinyl)-4-phenyl-1-phthalazinamine]
≥ 7.00 | ≥ 7.00 |  |  | c1ccc(-c2nnc(Nc3ccc(Oc4ncccc4-c4ccnc(NCCCN5CCNCC5)n4)nc3)c3ccccc23)cc1 [compound 390, 4-phenyl-N-(6-((3-(2-((3-(1-piperazinyl)propyl)amino)-4-pyrimidinyl)-2-pyridinyl)oxy)-3-pyridinyl)-1-phthalazinamine]
 |  | 5.80 | 6.19 | Nc1nccc(-c2cccnc2Oc2ccc(Nc3nnc(-c4ccccc4OP(=O)(O)O)c4ccccc34)cn2)n1 [compound 391, 2-(4-((6-((3-(2-amino-4-pyrimidinyl)-2-pyridinyl)oxy)-3-pyridinyl)amino)-1-phthalazinyl)phenyl dihydrogen phosphate]
5.60 to 6.30 | 5.60 to 6.30 |  |  | Nc1nccc(-c2cccnc2Oc2ccc(Nc3nnc(-c4cccc(OP(=O)(O)O)c4)c4ccccc34)cn2)n1 [compound 392, 3-(4-((6-((3-(2-amino-4-pyrimidinyl)-2-pyridinyl)oxy)-3-pyridinyl)amino)-1-phthalazinyl)phenyl dihydrogen phosphate]
5.60 to 6.30 | 6.30 to 7.00 |  |  | Nc1nccc(-c2cccnc2Oc2ccc(Nc3nnc(N4CCNCC4)c4ccccc34)cc2)n1 [compound 393, N-(4-((3-(2-amino-4-pyrimidinyl)-2-pyridinyl)oxy)phenyl)-4-(1-piperazinyl)-1-phthalazinamine]
≥ 7.00 | ≥ 7.00 |  |  | Nc1nccc(-c2cccnc2Oc2ccc(Nc3nnc(N4CCN5CCCC5C4)c4ccccc34)cc2)n1 (stereo not shown) [compound 394, N-(4-((3-(2-amino-4-pyrimidinyl)-2-pyridinyl)oxy)phenyl)-4-(hexahydropyrrolo[1,2-a]pyrazin-2(1H)-yl)-1-phthalazinamine]
≥ 7.00 | ≥ 7.00 |  |  | CC1CN(c2nnc(Nc3ccc(Oc4ncccc4-c4ccnc(N)n4)cc3)c3ccccc23)CCN1C (stereo not shown) [compound 395, N-(4-((3-(2-amino-4-pyrimidinyl)-2-pyridinyl)oxy)phenyl)-4-(3,4-dimethyl-1-piperazinyl)-1-phthalazinamine]
 |  | 8.33 | 9.10 | Cc1ccc(-c2nnc(Nc3ccc(Oc4ncccc4-c4ccnc(N)n4)cc3)c3ccccc23)nc1 [compound 396, N-(4-((3-(2-amino-4-pyrimidinyl)-2-pyridinyl)oxy)phenyl)-4-(5-methyl-2-pyridinyl)-1-phthalazinamine]
≥ 7.00 | ≥ 7.00 |  |  | Nc1nccc(-c2cccnc2Oc2ccc(Nc3nnc(N4CCN5CCCC5C4)c4ccccc34)cn2)n1 (stereo not shown) [compound 397, N-(6-((3-(2-amino-4-pyrimidinyl)-2-pyridinyl)oxy)-3-pyridinyl)-4-(hexahydropyrrolo[1,2-a]pyrazin-2(1H)-yl)-1-phthalazinamine]

Reference: patent publication EP1984353B1, “AURORA KINASE MODULATORS AND METHOD OF USE” (Amgen, Inc, priority 2006, dated 2007)
